Results from ChEMBL document CHEMBL1212719, “In vivo effects of a GPR30 antagonist” (Nat Chem Biol, 2009).
Active and inactive are the calls of the source. The calls are words filed in the database; no cut-off is given here.

Tests used:
Estrogen receptor beta [1] = target: T1, Estrogen receptor beta (Homo sapiens, UniProt Q92731); assay: Antagonist activity in ERbeta-transfected COS7 cells assessed as inhibition of E2-mediated PI(3)K activation; format: functional, cell-based; settings: COS-7
Estrogen receptor beta [2] = target: T1, Estrogen receptor beta; assay: Binding affinity to ERbeta receptor in COS7 cells by competitive binding assay; format: cell-based, COS-7
Mus musculus [3] = assay: Inhibition of G1-induced GPR30-mediated epithelial uterine cell proliferation in sc dosed ovariectomized C57B16 mouse; format: functional, organism-based; settings: Uterine epithelium
Mus musculus [4] = assay: Inhibition of GPR30-mediated epithelial uterine cell proliferation in ovariectomized C57B16 mouse at 2.4 to 27 nM, sc relative to control; format: functional, organism-based; settings: Uterine epithelium
Mus musculus [5] = assay: Effect on uterine weight in ovariectomized C57B16 mouse at 2.4 to 27 nM, sc; format: functional, organism-based; settings: Uterus
Mus musculus [6] = assay: Inhibition of estrogen-induced GPR30-mediated epithelial uterine cell proliferation in sc dosed ovariectomized C57B16 mouse; format: functional, Uterine epithelium
[7] = target: T2, Estrogen receptor (Homo sapiens) (UniProt P03372); assay: Antagonist activity in ERalpha-transfected COS7 cells assessed as inhibition of E2-mediated PI(3)K activation; format: functional, cell-based; settings: COS-7
T2 sequence (whole entry): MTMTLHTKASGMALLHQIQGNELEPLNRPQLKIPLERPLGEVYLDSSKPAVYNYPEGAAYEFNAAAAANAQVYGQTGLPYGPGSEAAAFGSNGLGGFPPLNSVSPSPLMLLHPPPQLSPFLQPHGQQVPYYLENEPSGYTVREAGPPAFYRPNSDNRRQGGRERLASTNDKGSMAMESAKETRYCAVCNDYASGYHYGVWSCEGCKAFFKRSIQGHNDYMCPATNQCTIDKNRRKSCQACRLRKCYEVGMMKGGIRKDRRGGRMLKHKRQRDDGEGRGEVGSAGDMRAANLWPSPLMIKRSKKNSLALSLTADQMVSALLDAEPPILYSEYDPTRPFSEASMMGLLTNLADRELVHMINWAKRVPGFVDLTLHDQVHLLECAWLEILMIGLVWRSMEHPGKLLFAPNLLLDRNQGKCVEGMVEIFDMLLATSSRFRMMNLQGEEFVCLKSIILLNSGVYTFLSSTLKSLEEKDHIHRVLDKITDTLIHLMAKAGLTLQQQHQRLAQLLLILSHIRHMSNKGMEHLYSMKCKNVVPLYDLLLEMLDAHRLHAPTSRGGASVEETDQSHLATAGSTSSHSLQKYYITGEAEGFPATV

Mus musculus [8] = assay: Effect on uterine weight in ovariectomized C57B16 mouse at 0.1 to 2.4 nM, sc; format: functional, organism-based; settings: Uterus

T1 sequence (Q92731 whole entry): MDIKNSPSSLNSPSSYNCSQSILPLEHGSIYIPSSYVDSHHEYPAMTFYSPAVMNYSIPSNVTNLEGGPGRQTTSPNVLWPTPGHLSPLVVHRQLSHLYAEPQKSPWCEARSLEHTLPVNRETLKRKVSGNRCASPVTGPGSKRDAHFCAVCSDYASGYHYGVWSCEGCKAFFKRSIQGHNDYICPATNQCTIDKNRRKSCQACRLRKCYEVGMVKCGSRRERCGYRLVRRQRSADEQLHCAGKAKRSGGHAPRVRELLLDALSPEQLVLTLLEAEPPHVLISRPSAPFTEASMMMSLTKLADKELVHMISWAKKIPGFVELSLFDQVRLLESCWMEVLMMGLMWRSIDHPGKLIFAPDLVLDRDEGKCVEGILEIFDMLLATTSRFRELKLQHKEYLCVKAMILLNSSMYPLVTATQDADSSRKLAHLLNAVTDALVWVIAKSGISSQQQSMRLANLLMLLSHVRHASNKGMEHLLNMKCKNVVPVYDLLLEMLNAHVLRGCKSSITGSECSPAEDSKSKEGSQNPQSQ

`Brc1cc2c(cc1[C@@H]1Nc3ccccc3[C@@H]3C=CC[C@@H]31)OCO2` was tested, and the Activity (Estrogen receptor beta [1]) was “inactive”, the Ki (Estrogen receptor beta [2]) was > 10 µM and the inhibition (Mus musculus [3]) was “Active; Dose-dependent effect”. The Activity (Mus musculus [4]) was “inactive”, the Activity (Mus musculus [5]) was “inactive” and the “inhibition (INH)” value (Mus musculus [6]) was 50%. The Activity [7] was “inactive”.
In the case of `CC(=O)c1ccc2c(c1)[C@@H]1C=CC[C@@H]1[C@H](c1cc3c(cc1Br)OCO3)N2`, the Activity (Mus musculus [8]) is reported as “inactive”.
